Measured values taken from ChEMBL document CHEMBL5046296 (J Med Chem, 2022).

Columns and labels:
[1] = Permeability across basolateral to apical side in human Caco-2 cells at 3 uM measured after 2 hrs by LC-MS/MS analysis; format: ADME, cell-based; conditions: read-out: permeability
[2] = Displacement of 3H-LP-927443 from AAK1 in mouse brain membrane homogenate assessed as inhibition constant at 1 uM incubated for 1 hr by liquid scintillation counter analysis; format: cell membranes
[3] = biological target: T1, AP2-associated protein kinase 1 (Homo sapiens, UniProt Q2M2I8); experiment: Inhibition of […] in HEK293F cells assessed as reduction in phospho mu2 formation incubated for 3 hrs by Western blot analysis; format: cell-based
[4] = Metabolic stability in rat liver microsomes assessed as CYP450-mediated metabolism by measuring parent compound remaining at 0.5 uM incubated for 10 mins in presence of NADPH by LC-MS/MS analysis; format: ADME; conditions: read-out: Stability
[5] = biological target: Cytochrome P450 (Homo sapiens, UniProt P04798+P05177+P05181+P08684+P10632+P10635+P11509+P11712+P13584+P20813+P20815+P20853+P24462+P24903+P33260+P33261+P51589+P78329+P98187+Q02928+Q08477+Q16678+Q16696+Q5TCH4+Q6VVX0+Q7Z449+Q8TAV3+Q96SQ9+Q9HB55); experiment: Metabolic stability in human liver microsomes assessed as CYP450-mediated metabolism by measuring parent compound remaining at 0.5 uM incubated for 10 mins in presence of NADPH by LC-MS/MS analysis; format: ADME; conditions: read-out: Stability
[6] = Protein binding in rat plasma assessed as unbound fraction at 10 uM measured after 5 hrs by LC-MS/MS analysis; format: ADME, cell-free
[7] = tested on: Aorta; experiment: Cardiotoxicity in rat aortic ring assessed as relaxation of phenylephrine induced aortic ring contraction at 10 uM incubated for 1 hr; format: toxicity, tissue-based; design: scale not given: the % may be the effect or the level left
[8] = Permeability across apical to basolateral side in human Caco-2 cells at 3 uM measured after 2 hrs by LC-MS/MS analysis; format: ADME, cell-based; conditions: read-out: permeability
[9] = Permeability of compound at pH 7.4 measured after 4 hrs by PAMPA assay; format: ADME; conditions: read-out: permeability
[10] = biological target: T1, AP2-associated protein kinase 1; experiment: Inhibition of GST-Xa tagged human AAK1 (30 to 330 residues) expresssed in bacteria using (5-FAM)-Aha-KEEQSQITSQVTGQIGWR-NH2 peptide as substrate incubated for 3 hrs in presence of ATP by electrophoretic analysis
[11] = Permeability of compound at pH 5.5 measured after 4 hrs by PAMPA assay; format: ADME; conditions: read-out: permeability
[12] = Metabolic stability in mouse liver microsomes assessed as CYP450-mediated metabolism by measuring parent compound remaining at 0.5 uM incubated for 10 mins in presence of NADPH by LC-MS/MS analysis; format: ADME; conditions: read-out: Stability
[13] = biological target: Cytochrome P450 3A4 (Homo sapiens, UniProt P08684); experiment: Inhibition of CYP3A4 (unknown origin) using BFC as substrate; format: ADME
[14] = Protein binding in mouse plasma assessed as unbound fraction at 10 uM measured after 5 hrs by LC-MS/MS analysis; format: ADME, cell-free
[15] = Protein binding in human plasma assessed as unbound fraction at 10 uM measured after 5 hrs by LC-MS/MS analysis; format: ADME, cell-free
[16] = Drug concentration in streptozotocin induced diabetic peripheral neuropathic mechanical allodynia in overnight fasted Sprague-Dawley rat spinal cord at 1 mg/kg, po measured after 5.5 hrs; format: ADME, organism-based; conditions: read-out: Ct
[17] = biological target: cGMP-dependent protein kinase 2 (Homo sapiens, UniProt Q13237); experiment: Inhibition of PKG2 (unknown origin)
[18] = biological target: Glycogen synthase kinase-3 alpha (Homo sapiens, UniProt P49840); experiment: Inhibition of GSK3A (unknown origin)
[19] = biological target: MAP kinase-interacting serine/threonine-protein kinase 2 (Homo sapiens, UniProt Q9HBH9); experiment: Inhibition of MNK2 (unknown origin)
[20] = Cmax in plasma of overnight fasted Sprague-Dawley rat model of streptozotocin induced diabetic peripheral neuropathic mechanical allodynia at 1 mg/kg, po measured after 5.5 hrs; format: ADME, organism-based; design: route oral, time 5.5 hrs, dose 1 mg/kg
[21] = Ratio of drug concentration in brain to plasma in streptozotocin induced diabetic peripheral neuropathic mechanical allodynia in overnight fasted Sprague-Dawley rat at 1 mg/kg, po measured after 5.5 hrs; format: ADME, organism-based
[22] = tested on: Rattus norvegicus; experiment: Analgesic activity in streptozotocin induced diabetic peripheral neuropathic mechanical allodynia in overnight fasted Sprague-Dawley rat model assessed as reduction in pain response at 1 mg/kg, po measured after 5.5 hrs post treatment; format: functional; design: scale not given: the % may be the effect or the level left
[23] = Drug concentration in brain of overnight fasted Sprague-Dawley rat model of streptozotocin induced diabetic peripheral neuropathic mechanical allodynia at 1 mg/kg, po measured after 5.5 hrs; format: ADME, organism-based; conditions: read-out: Ct

T1 sequence (Q2M2I8 whole entry): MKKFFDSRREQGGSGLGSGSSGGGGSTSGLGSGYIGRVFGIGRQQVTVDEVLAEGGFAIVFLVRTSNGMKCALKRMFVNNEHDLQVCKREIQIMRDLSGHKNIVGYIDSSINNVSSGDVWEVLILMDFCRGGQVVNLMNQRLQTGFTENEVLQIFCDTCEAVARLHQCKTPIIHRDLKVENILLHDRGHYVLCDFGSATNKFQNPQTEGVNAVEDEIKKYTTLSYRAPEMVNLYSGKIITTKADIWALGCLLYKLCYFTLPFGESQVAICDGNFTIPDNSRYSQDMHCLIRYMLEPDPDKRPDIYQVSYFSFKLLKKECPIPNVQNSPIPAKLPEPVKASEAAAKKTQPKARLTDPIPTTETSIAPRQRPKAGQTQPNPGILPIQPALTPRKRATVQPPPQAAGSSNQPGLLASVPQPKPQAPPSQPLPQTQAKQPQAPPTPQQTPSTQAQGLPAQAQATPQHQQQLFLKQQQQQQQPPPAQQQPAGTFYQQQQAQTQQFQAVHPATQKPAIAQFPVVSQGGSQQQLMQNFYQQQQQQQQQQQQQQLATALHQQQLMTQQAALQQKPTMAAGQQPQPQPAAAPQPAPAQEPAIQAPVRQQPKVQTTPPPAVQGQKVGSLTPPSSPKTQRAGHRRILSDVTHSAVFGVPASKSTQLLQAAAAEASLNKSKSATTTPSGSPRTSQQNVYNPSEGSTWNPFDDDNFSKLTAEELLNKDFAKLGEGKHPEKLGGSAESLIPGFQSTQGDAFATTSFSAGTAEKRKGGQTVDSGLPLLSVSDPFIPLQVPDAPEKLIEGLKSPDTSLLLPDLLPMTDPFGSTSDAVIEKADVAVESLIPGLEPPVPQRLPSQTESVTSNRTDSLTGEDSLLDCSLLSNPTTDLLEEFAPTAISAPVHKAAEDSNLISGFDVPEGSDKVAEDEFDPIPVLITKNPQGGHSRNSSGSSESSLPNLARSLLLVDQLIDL
Sequence of Cytochrome P450 3A4 (P08684 whole entry): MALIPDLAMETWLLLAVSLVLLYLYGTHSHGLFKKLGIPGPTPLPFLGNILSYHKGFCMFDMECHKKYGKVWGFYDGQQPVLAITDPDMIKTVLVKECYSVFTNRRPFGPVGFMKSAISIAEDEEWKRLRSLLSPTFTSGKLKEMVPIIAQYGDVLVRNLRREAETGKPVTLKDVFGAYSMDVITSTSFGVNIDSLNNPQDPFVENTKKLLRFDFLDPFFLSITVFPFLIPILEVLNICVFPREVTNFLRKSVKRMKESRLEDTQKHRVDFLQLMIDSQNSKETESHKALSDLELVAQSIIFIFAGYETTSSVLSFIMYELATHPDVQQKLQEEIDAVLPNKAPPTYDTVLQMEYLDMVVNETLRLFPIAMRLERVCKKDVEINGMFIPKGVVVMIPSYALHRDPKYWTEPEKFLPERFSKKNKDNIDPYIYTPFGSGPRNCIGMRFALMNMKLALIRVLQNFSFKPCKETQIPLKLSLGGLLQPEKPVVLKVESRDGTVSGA
Sequence of MAP kinase-interacting serine/threonine-protein kinase 2 (Q9HBH9 whole entry): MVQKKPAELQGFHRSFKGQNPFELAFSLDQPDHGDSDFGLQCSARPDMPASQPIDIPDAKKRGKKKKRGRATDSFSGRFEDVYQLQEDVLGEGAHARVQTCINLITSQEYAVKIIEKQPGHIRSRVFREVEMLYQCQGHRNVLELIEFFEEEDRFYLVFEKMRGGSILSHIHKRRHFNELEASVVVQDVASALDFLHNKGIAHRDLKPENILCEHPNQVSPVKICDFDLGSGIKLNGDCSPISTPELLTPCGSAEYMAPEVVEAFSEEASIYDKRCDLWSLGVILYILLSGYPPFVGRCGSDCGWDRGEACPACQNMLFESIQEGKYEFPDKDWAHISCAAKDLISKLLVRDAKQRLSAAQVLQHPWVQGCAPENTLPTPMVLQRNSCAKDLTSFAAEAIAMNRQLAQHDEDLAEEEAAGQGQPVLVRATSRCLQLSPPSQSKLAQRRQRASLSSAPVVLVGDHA
Sequence of Glycogen synthase kinase-3 alpha (P49840 whole entry): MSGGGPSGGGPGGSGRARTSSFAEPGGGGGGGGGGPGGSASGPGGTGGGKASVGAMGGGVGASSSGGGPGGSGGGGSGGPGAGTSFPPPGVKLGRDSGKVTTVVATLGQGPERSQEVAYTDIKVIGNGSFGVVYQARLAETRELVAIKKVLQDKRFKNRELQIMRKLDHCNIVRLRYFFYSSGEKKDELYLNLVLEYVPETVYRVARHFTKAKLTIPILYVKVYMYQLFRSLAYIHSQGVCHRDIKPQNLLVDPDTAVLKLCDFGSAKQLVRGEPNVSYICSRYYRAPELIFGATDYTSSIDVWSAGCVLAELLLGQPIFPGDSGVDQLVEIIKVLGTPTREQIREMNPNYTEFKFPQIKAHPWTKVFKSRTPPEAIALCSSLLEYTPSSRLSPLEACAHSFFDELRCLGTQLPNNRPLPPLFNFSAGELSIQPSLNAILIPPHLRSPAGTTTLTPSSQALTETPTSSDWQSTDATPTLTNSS
Sequence of cGMP-dependent protein kinase 2 (Q13237 whole entry): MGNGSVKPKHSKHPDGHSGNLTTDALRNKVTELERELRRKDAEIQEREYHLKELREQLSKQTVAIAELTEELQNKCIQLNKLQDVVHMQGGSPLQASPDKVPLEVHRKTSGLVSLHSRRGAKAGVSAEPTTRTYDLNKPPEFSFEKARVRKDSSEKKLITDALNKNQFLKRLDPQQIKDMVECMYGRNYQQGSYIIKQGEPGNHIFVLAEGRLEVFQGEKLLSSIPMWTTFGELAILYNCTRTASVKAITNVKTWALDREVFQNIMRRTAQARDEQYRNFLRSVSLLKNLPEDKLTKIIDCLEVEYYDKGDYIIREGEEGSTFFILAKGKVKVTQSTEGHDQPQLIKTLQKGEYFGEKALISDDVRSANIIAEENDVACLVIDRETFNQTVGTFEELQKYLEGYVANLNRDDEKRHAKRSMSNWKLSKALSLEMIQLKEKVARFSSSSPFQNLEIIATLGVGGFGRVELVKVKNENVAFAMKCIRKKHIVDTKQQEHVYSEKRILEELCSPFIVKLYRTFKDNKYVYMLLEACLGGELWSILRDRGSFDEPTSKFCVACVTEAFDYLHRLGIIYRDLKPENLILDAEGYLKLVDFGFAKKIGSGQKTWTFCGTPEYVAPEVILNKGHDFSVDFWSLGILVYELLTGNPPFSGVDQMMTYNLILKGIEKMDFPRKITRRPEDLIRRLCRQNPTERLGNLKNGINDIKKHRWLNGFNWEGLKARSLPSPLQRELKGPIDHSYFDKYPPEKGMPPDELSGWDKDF

SMILES | Ki [2] [nM] | IC50 [3] [nM] | remaining at 10 min, 0.5 µM [4] [%] | remaining at 10 min, 0.5 µM [5] [%] | IC50 [10] [nM] | remaining at 10 min, 0.5 µM [12] [%] | IC50 [13] [nM] | Activity [7] [%] | also measured
CC(C)C[C@](C)(N)COc1ncc(-c2ccnc(C(F)F)c2)cc1C#N |  |  |  |  |  |  |  | 50 | 
Cc1cc(-c2cnc(OC[C@@](C)(N)CC(C)C)c(C#N)c2)ccn1 |  |  |  |  |  |  |  | 28 | 
CC(C)C[C@H](N)COc1ccc(-c2ccncc2)cc1 |  |  |  |  |  |  | 8700 |  | 
CC(C)C[C@H](N)COc1ccc(-c2ccnc(C(F)(F)F)c2)cc1C#N |  |  |  |  |  |  | 1300 |  | 
CC(C)C[C@](C)(N)COc1ccc(-c2ccnc(C(F)F)c2)nc1Cl |  |  |  |  |  |  |  | 64 | 

Second part, led by results:

Ki [2] [nM] | IC50 [3] [nM] | remaining at 10 min, 0.5 µM [4] [%] | remaining at 10 min, 0.5 µM [5] [%] | IC50 [10] [nM] | remaining at 10 min, 0.5 µM [12] [%] | IC50 [13] [nM] | SMILES | Activity [7] [%] | also measured
0.22 | 25 | 86 | 89 | 0.9 | 66 | > 20000 | Cc1cc(-c2ccc(OC[C@@](C)(N)CC(C)C)c(C(F)(F)F)c2)ccn1 | 69 | Papp B→A at 2 h, 3 µM [1]: 5.9 ×10⁻⁶ cm/s; fraction unbound at 5 h, 10 µM [6]: 0.026; Papp A→B at 2 h, 3 µM [8]: 7.1 ×10⁻⁶ cm/s; Papp at 4 h [9]: 30.5 ×10⁻⁶ cm/s; Papp at 4 h [11]: 36 ×10⁻⁶ cm/s; fraction unbound at 5 h, 10 µM [14]: 0.017; fraction unbound at 5 h, 10 µM [15]: 0.02
0.17 | 29 |  |  | 0.6 |  | 630 | CC(C)C[C@](C)(N)COc1ccc(-c2ccncc2)cc1C(F)(F)F |  | 
 | 9.1 | 88 | 89 | 3.1 | 76 |  | CC(C)C[C@](C)(N)COc1ncc(-c2ccnc(Cl)c2)cc1C(F)F |  | 
 |  | 65 | 43 | 1.9 | 43 |  | Cc1cc(-c2cnc(OC[C@@](C)(N)CC(C)C)c(C(F)F)c2)ccn1 |  | 
0.07 | 7.8 | 92 | 94 | 0.6 | 98 | 18000 | CC(C)C[C@](C)(N)COc1ccc(-c2ccnc(C(F)F)c2)cc1C(F)(F)F |  | concentration at 5.5 h [16]: 510 nM; Papp B→A at 2 h, 3 µM [1]: 1.7 ×10⁻⁶ cm/s; IC50 [17]: 380 nM; IC50 [18]: 1700 nM; IC50 [19]: 380 nM; Cmax [20]: 80 nM; Kp at 5.5 h [21]: 11; fraction unbound at 5 h, 10 µM [6]: 0.004; Papp A→B at 2 h, 3 µM [8]: 3.3 ×10⁻⁶ cm/s; Papp at 4 h [9]: 55 ×10⁻⁶ cm/s; Papp at 4 h [11]: 33.9 ×10⁻⁶ cm/s; fraction unbound at 5 h, 10 µM [14]: 0.002; Activity [22]: 30%; concentration at 5.5 h [23]: 880 nM; fraction unbound at 5 h, 10 µM [15]: 0.008
0.25 | 6.4 | 71 | 85 | 0.6 | 97 | > 20000 | CC(C)C[C@](C)(N)COc1ccc(-c2ccnc(C(F)F)c2)cc1C#N | 100 | Papp B→A at 2 h, 3 µM [1]: 17.7 ×10⁻⁶ cm/s; fraction unbound at 5 h, 10 µM [6]: 0.14; Papp A→B at 2 h, 3 µM [8]: 22.2 ×10⁻⁶ cm/s; Papp at 4 h [9]: 68.7 ×10⁻⁶ cm/s; Papp at 4 h [11]: 68.1 ×10⁻⁶ cm/s; fraction unbound at 5 h, 10 µM [14]: 0.079; fraction unbound at 5 h, 10 µM [15]: 0.14
